# Measured values published in ChEMBL document CHEMBL1155921, “Synthesis and biological evaluation of novel 1-O- and 14-O-derivatives of oridonin as potential anticancer drug candidates” (Bioorg Med Chem Lett, 2008).
# How the values were obtained:
# [1] = Cytotoxicity against human BGC-7901 cells by MTT assay; assay type: functional, cell-based
# A549 = experiment: Cytotoxicity against human A549 cells by MTT assay; assay type: functional, cell-based
# SW480 = experiment: Cytotoxicity against human SW480 cells by MTT assay; assay type: functional, cell-based
# H22 [2] = experiment: Antitumor activity in mouse H22 cell xenografted mouse at 20 mg/kg/day, ip after 4 days; assay type: functional; conditions: 96 h, route intraperitoneal
# B16 [3] = experiment: Antitumor activity in mouse B16 cell xenografted mouse at 20 mg/kg/day, ip after 4 days; assay type: functional; conditions: 96 h, route intraperitoneal
# B16 [4] = experiment: Cytotoxicity against mouse B16 cells by MTT assay; assay type: functional, cell-based
# HL-60 = experiment: Cytotoxicity against human HL60 cells by MTT assay; assay type: functional, cell-based
# Bel-7402 = experiment: Cytotoxicity against human BEL-7402 cells by MTT assay; assay type: functional, cell-based
# H22 [5] = experiment: Antitumor activity in mouse H22 cell xenografted mouse at 20 mg/kg/day, iv after 4 days; conditions: 96 h, read-out: INH
# B16 [6] = experiment: Antitumor activity in mouse B16 cell xenografted mouse at 20 mg/kg/day, iv after 4 days; assay type: functional; conditions: B16, 96 h
Compound,IC50 [1] [µM],IC50 (A549) [µM],IC50 (SW480) [µM],inhibition in vivo at 20 mg/kg/day (H22 [2]) [%],inhibition in vivo at 20 mg/kg/day (B16 [3]) [%],IC50 (B16 [4]) [µM],IC50 (HL-60) [µM],IC50 (Bel-7402; read-out: IC50) [µM],inhibition in vivo at 20 mg/kg/day (H22 [5]) [%],inhibition in vivo at 20 mg/kg/day (B16 [6]) [%],IC50 (Bel-7402) [µM]
C=C1C(=O)[C@]23[C@H](OC(=O)C(Cc4ccccc4)NC(=O)/C=C/C(=O)O)[C@@H]1CC[C@H]2[C@@]12CO[C@]3(O)[C@@H](O)[C@@H]1C(C)(C)CCC2=O (stereo partly specified),3.02,3.46,2.89,62.5,61.2,8.22,2.07,1,,,
C=C1C(=O)[C@]23[C@H](OC(=O)C(Cc4ccccc4)NC(=O)CCCCC(=O)O)[C@@H]1CC[C@H]2[C@@]12CO[C@]3(O)[C@@H](O)[C@@H]1C(C)(C)CCC2=O (stereo partly specified),7.05,8.06,7.3,,,13.9,6.24,12.8,,,
C=C1C(=O)[C@]23[C@H](OC(=O)CNC(=O)CCC(=O)O)[C@@H]1CC[C@H]2[C@@]12CO[C@]3(O)[C@@H](O)[C@@H]1C(C)(C)CCC2=O,15.6,11.5,10.2,,,8.57,7.76,2.09,,,
C=C1C(=O)[C@]23[C@H](OC(=O)C(N)Cc4ccccc4)[C@@H]1CC[C@H]2[C@@]12CO[C@]3(O)[C@@H](O)[C@@H]1C(C)(C)CCC2=O (stereo partly specified),10.5,22.2,15,,,10.2,27.5,29.6,,,
C=C1C(=O)[C@]23[C@H](OC(=O)CN)[C@@H]1CC[C@H]2[C@@]12CO[C@]3(O)[C@@H](O)[C@@H]1C(C)(C)CC[C@@H]2OC(C)=O,18.2,11,22.3,,,12.4,12.3,17.9,,,
C=C1C(=O)[C@]23[C@H](OC(=O)CNC(=O)c4ccccc4C(=O)O)[C@@H]1CC[C@H]2[C@@]12CO[C@]3(O)[C@@H](O)[C@@H]1C(C)(C)CC[C@@H]2OS(=O)(=O)CCC,20.9,22.7,25.4,,,17.6,13.8,39.1,,,
C=C1C(=O)[C@]23[C@H](OC(=O)CNC(=O)CCCCC(=O)O)[C@@H]1CC[C@H]2[C@@]12CO[C@]3(O)[C@@H](O)[C@@H]1C(C)(C)CC[C@@H]2OS(=O)(=O)CCC,15.3,14,11.2,,,13,9.5,24.8,,,
C=C1C(=O)[C@]23[C@H](OC(=O)CNC(=O)CCCCC(=O)O)[C@@H]1CC[C@H]2[C@@]12CO[C@]3(O)[C@@H](O)[C@@H]1C(C)(C)CCC2=O,15.1,7.47,10.2,,,16.4,8.65,13.8,,,
C=C1C(=O)[C@]23[C@H](OC(=O)C(Cc4ccccc4)NC(=O)CCC(=O)O)[C@@H]1CC[C@H]2[C@@]12CO[C@]3(O)[C@@H](O)[C@@H]1C(C)(C)CCC2=O (stereo partly specified),5.96,17.1,12.9,59.1,56.6,14.8,2.31,6.5,,,
C=C1C(=O)[C@]23[C@H](OC(=O)CNC(=O)CCCCC(=O)O)[C@@H]1CC[C@H]2[C@@]12CO[C@]3(O)[C@@H](O)[C@@H]1C(C)(C)CC[C@@H]2OC(C)=O,13.2,10.5,10.7,,,12.5,5.3,8.26,,,
C=C1C(=O)[C@]23[C@H](OC(=O)CNC(=O)/C=C/C(=O)O)[C@@H]1CC[C@H]2[C@@]12CO[C@]3(O)[C@@H](O)[C@@H]1C(C)(C)CC[C@@H]2OS(=O)(=O)CCC,5.52,1.33,14.7,,,5.66,1.97,19.1,,,
C=C1C(=O)[C@]23[C@H](OC(=O)CNC(=O)/C=C/C(=O)O)[C@@H]1CC[C@H]2[C@@]12CO[C@]3(O)[C@@H](O)[C@@H]1C(C)(C)CC[C@@H]2OC(C)=O,2.78,2.6,2.6,64.9,69.9,0.93,0.84,1,,,
C=C1C(=O)[C@]23[C@H](OC(=O)CN)[C@@H]1CC[C@H]2[C@@]12CO[C@]3(O)[C@@H](O)[C@@H]1C(C)(C)CCC2=O,20.9,20.6,28.4,,,19.1,24.8,30.3,,,
C=C1C(=O)[C@]23[C@H](OC(=O)CN)[C@@H]1CC[C@H]2[C@@]12CO[C@]3(O)[C@@H](O)[C@@H]1C(C)(C)CC[C@@H]2OS(=O)(=O)CCC,15.9,16.3,24.7,,,21.7,19.8,20.2,,,
O=P1(N(CCCl)CCCl)NCCCO1 (stereo unspecified) [CYCLOPHOSPHAMIDE ANHYDROUS],,,,,,,,,54.3,,
O=c1[nH]cc(F)c(=O)[nH]1 [FLUOROURACIL],16.4,10.8,13.2,,,8.73,21.4,,,73.5,14.4
C=C1C(=O)[C@]23[C@H](O)[C@H]1CC[C@H]2[C@@]12CO[C@]3(O)[C@@H](O)[C@@H]1C(C)(C)CC[C@@H]2O [ORIDONIN],28.3,27.2,31.4,42.7,45.9,26.2,32.8,39.8,,,
